This passage reports residual activity results from the kinase profiling compilation of Christmann-Franck et al. (2016).

For orientation: residual activity means the signal under treatment as a percentage of the control signal.

Sequence of TAOK3 (human) (Q9H2K8 whole entry, looked up): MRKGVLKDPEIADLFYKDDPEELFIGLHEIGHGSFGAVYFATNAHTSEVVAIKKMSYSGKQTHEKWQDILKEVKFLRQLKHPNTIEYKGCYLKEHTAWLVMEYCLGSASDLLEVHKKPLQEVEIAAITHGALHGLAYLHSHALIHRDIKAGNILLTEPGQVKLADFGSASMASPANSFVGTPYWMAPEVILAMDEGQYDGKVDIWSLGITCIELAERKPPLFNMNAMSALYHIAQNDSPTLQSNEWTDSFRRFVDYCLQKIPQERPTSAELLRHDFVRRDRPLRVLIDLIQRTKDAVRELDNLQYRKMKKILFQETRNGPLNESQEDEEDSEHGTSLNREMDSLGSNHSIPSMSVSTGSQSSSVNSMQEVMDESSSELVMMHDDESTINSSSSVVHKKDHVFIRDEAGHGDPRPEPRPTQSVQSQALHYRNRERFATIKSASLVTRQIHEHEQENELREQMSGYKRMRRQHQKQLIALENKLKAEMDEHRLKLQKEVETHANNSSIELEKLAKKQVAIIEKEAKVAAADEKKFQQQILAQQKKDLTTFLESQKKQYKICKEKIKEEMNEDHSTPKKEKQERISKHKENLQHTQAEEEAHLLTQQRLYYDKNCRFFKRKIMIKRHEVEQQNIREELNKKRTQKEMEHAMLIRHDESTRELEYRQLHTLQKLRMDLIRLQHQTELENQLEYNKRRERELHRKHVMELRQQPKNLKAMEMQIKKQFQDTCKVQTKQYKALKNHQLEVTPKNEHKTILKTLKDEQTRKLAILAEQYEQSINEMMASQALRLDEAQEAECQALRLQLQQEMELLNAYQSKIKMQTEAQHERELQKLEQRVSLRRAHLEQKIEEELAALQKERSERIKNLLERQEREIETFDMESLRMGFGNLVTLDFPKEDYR
Sequence of CDK7 CCNH MNAT1 (human) (P50613 whole entry, looked up): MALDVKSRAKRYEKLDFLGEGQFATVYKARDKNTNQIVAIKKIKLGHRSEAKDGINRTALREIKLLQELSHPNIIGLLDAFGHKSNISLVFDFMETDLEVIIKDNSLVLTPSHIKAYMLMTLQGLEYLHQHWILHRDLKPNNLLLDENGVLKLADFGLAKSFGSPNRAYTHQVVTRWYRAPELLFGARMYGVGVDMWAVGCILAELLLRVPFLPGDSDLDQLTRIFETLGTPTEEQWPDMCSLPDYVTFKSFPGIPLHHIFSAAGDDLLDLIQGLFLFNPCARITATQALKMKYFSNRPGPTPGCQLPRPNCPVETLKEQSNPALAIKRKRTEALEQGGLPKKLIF
Sequence of CDK7 CCNH MNAT1 (human) (P51946 whole entry, looked up): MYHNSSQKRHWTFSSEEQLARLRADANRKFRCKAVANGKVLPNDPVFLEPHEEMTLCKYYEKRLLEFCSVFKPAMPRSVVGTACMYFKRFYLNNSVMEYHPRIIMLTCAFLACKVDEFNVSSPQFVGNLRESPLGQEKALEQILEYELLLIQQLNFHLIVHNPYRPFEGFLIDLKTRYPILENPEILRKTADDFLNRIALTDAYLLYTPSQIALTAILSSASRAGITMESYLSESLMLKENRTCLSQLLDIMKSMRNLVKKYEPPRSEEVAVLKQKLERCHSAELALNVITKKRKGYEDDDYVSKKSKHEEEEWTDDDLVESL
Sequence of CDK7 CCNH MNAT1 (human) (P51948 whole entry, looked up): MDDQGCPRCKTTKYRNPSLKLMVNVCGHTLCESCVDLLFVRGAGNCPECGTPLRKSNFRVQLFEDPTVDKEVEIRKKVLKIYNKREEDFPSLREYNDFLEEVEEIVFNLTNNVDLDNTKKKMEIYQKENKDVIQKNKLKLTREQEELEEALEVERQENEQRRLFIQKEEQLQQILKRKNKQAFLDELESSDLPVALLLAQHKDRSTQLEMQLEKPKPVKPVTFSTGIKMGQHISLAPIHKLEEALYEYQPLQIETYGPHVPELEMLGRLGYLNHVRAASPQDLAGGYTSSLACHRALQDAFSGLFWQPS
Sequence of MAP3K9 (human) (P80192 whole entry, looked up): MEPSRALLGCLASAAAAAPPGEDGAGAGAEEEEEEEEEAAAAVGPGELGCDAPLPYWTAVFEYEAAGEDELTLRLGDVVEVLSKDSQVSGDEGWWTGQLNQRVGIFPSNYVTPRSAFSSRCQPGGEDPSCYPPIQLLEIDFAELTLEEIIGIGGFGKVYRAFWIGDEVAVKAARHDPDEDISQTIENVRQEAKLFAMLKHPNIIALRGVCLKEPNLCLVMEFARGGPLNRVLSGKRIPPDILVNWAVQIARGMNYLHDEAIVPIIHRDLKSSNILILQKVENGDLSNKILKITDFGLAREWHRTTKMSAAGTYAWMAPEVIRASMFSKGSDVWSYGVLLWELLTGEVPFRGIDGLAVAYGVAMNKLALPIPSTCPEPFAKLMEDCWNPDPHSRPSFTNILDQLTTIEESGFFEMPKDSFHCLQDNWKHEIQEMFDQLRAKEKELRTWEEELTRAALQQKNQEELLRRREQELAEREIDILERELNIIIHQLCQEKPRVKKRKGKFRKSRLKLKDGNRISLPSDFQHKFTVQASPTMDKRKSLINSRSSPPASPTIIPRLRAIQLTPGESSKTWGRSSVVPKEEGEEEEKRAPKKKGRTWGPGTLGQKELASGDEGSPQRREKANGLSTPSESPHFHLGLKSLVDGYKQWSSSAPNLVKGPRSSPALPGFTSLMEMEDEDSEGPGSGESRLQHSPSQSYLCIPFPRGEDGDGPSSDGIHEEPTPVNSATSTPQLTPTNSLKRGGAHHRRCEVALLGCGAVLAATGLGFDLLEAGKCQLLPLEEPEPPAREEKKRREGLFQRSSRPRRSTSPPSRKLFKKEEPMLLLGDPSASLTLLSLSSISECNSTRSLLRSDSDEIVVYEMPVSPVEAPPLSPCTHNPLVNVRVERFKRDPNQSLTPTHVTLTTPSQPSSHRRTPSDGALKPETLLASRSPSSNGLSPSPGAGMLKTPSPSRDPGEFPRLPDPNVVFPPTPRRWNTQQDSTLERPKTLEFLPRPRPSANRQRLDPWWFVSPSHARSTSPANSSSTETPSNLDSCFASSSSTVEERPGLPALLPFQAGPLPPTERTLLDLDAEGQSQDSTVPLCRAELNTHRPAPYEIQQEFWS
Sequence of PAK6 (human) (Q9NQU5 whole entry, looked up): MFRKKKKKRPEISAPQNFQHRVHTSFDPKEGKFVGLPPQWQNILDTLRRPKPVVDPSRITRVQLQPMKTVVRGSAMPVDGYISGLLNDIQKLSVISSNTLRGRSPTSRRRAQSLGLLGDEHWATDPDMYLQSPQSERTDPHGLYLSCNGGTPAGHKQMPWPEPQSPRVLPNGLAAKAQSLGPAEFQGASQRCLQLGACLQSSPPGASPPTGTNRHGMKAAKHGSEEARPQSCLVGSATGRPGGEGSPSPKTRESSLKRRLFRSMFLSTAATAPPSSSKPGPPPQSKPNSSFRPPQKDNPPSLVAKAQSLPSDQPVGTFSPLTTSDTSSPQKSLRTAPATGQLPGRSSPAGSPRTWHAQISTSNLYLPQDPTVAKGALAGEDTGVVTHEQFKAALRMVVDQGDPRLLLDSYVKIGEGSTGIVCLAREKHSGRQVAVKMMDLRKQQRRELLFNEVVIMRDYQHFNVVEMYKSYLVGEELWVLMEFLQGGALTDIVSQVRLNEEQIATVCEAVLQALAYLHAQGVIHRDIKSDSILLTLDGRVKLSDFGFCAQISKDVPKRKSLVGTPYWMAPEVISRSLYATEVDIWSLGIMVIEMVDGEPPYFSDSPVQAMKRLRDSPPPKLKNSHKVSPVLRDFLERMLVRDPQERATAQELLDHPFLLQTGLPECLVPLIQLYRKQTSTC

The target of the first assay is ABL1 (human) (UniProt P00519). Briefly: radiometric filter-binding kinase assay, Kinase HotSpot. The settings on record: compound 0.5 µM; ATP 10 µM.
For `CCN(CC)C(=O)c1ccc(Nc2nc(OCC3CCCCC3)c3nc[nH]c3n2)cc1`, the residual activity stood at 67.1%.

Turning to `O=C(Nc1cccc(Nc2nccc(Nc3cccc(C(F)(F)F)c3)n2)c1)C1CC1`, the residual activity stood at 94.9%.

On to `CCC(=O)Nc1ccc2ncnc(Nc3cccc(Br)c3)c2c1`, for which the residual activity turned out to be 98.9%.

A further assay has as its target LRRK2 (human) (UniProt Q5S007). The assay is described as above. The settings on record: compound 0.5 µM; ATP 10 µM.
For `CCN(CC)C(=O)c1ccc(Nc2nc(OCC3CCCCC3)c3nc[nH]c3n2)cc1`, the residual activity was found to be 2.21%.

With `O=C(Nc1cccc(Nc2nccc(Nc3cccc(C(F)(F)F)c3)n2)c1)C1CC1`, the residual activity turned out to be 93.7%.

Take `CCC(=O)Nc1ccc2ncnc(Nc3cccc(Br)c3)c2c1`: the residual activity is 92.4%.

Another assay deals with GRK5 (human) (UniProt P34947). The assay is described as above. To be noted: compound 0.5 µM; ATP 10 µM.
As for `CCN(CC)C(=O)c1ccc(Nc2nc(OCC3CCCCC3)c3nc[nH]c3n2)cc1`, the residual activity stood at 98.8%.

On to `O=C(Nc1cccc(Nc2nccc(Nc3cccc(C(F)(F)F)c3)n2)c1)C1CC1`, for which the residual activity stood at 104%.

Take `CCC(=O)Nc1ccc2ncnc(Nc3cccc(Br)c3)c2c1`: the residual activity is 107%.

In the next assay the target is FES (human) (UniProt P07332). The description is as above. The settings on record: compound 0.5 µM; ATP 10 µM.
With `CCN(CC)C(=O)c1ccc(Nc2nc(OCC3CCCCC3)c3nc[nH]c3n2)cc1`, the residual activity came to 63.2%.

Take `O=C(Nc1cccc(Nc2nccc(Nc3cccc(C(F)(F)F)c3)n2)c1)C1CC1`: the residual activity turned out to be 94.3%.

`CCC(=O)Nc1ccc2ncnc(Nc3cccc(Br)c3)c2c1`: the residual activity turned out to be 102%.

The next assay concerns the target IGF1R (human) (UniProt P08069). Described as above. To be noted: compound 0.5 µM; ATP 10 µM.
Consider `CCN(CC)C(=O)c1ccc(Nc2nc(OCC3CCCCC3)c3nc[nH]c3n2)cc1`, for which the residual activity turned out to be 28.4%.

In the case of `O=C(Nc1cccc(Nc2nccc(Nc3cccc(C(F)(F)F)c3)n2)c1)C1CC1`, the residual activity is 95.7%.

Consider `CCC(=O)Nc1ccc2ncnc(Nc3cccc(Br)c3)c2c1`, for which the residual activity came to 87.6%.

For the next assay, the target named is ROS1 (human) (UniProt P08922). Described as above. To be noted: compound 0.5 µM; ATP 10 µM.
As to `CCN(CC)C(=O)c1ccc(Nc2nc(OCC3CCCCC3)c3nc[nH]c3n2)cc1`, the residual activity came out at 69.9%.

With `O=C(Nc1cccc(Nc2nccc(Nc3cccc(C(F)(F)F)c3)n2)c1)C1CC1`, the residual activity was 65.5%.

On to `CCC(=O)Nc1ccc2ncnc(Nc3cccc(Br)c3)c2c1`, for which the residual activity came out at 97.5%.

For the next assay, the target named is NEK3 (human) (UniProt P51956). The description is as above. The settings on record: compound 0.5 µM; ATP 10 µM.
Sequence of NEK3 (human) (P51956 whole entry, looked up): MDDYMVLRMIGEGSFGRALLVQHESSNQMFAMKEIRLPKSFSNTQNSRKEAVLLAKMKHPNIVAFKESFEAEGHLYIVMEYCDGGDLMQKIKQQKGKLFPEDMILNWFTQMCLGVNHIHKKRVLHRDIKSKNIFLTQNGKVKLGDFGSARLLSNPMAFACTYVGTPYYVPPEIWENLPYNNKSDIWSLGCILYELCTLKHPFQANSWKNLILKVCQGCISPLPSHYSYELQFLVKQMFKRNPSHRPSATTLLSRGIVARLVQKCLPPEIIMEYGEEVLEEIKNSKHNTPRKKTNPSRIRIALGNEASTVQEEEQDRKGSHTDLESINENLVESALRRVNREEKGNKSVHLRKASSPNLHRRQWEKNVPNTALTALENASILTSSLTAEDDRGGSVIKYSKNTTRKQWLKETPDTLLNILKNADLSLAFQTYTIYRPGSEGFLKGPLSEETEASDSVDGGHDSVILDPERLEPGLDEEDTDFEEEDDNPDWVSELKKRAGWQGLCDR
For the molecule `CCN(CC)C(=O)c1ccc(Nc2nc(OCC3CCCCC3)c3nc[nH]c3n2)cc1`, the residual activity amounted to 69.4%.

`O=C(Nc1cccc(Nc2nccc(Nc3cccc(C(F)(F)F)c3)n2)c1)C1CC1`: the residual activity stood at 95.8%.

In the case of `CCC(=O)Nc1ccc2ncnc(Nc3cccc(Br)c3)c2c1`, the residual activity worked out at 99.6%.

The target in the next assay is NEK4 (human) (UniProt P51957). The description is as above. The settings on record: compound 0.5 µM; ATP 10 µM.
For the molecule `CCN(CC)C(=O)c1ccc(Nc2nc(OCC3CCCCC3)c3nc[nH]c3n2)cc1`, the residual activity came to 87.9%.

Turning to `O=C(Nc1cccc(Nc2nccc(Nc3cccc(C(F)(F)F)c3)n2)c1)C1CC1`, the residual activity was determined as 83.4%.

For `CCC(=O)Nc1ccc2ncnc(Nc3cccc(Br)c3)c2c1`, the residual activity stood at 94.7%.

For another assay, the target named is CSNK1G2 (human) (UniProt P78368). The assay is described as above. To be noted: compound 0.5 µM; ATP 10 µM.
`CCN(CC)C(=O)c1ccc(Nc2nc(OCC3CCCCC3)c3nc[nH]c3n2)cc1`: the residual activity was determined as 59.8%.

Take `O=C(Nc1cccc(Nc2nccc(Nc3cccc(C(F)(F)F)c3)n2)c1)C1CC1`: the residual activity was found to be 101%.

Turning to `CCC(=O)Nc1ccc2ncnc(Nc3cccc(Br)c3)c2c1`, the residual activity was found to be 98.1%.

Another assay deals with DMPK (human) (UniProt Q09013). The assay is described as above. To be noted: compound 0.5 µM; ATP 10 µM.
As for `CCN(CC)C(=O)c1ccc(Nc2nc(OCC3CCCCC3)c3nc[nH]c3n2)cc1`, the residual activity turned out to be 105%.

`O=C(Nc1cccc(Nc2nccc(Nc3cccc(C(F)(F)F)c3)n2)c1)C1CC1`: the residual activity was found to be 101%.

For the molecule `CCC(=O)Nc1ccc2ncnc(Nc3cccc(Br)c3)c2c1`, the residual activity came out at 92%.

The next assay addresses GRK6 (human) (UniProt P43250). The assay is described as above. The settings on record: compound 0.5 µM; ATP 10 µM.
Turning to `CCN(CC)C(=O)c1ccc(Nc2nc(OCC3CCCCC3)c3nc[nH]c3n2)cc1`, the residual activity came to 99.5%.

For the molecule `O=C(Nc1cccc(Nc2nccc(Nc3cccc(C(F)(F)F)c3)n2)c1)C1CC1`, the residual activity was found to be 93.8%.

Regarding `CCC(=O)Nc1ccc2ncnc(Nc3cccc(Br)c3)c2c1`, the residual activity was 97.6%.

For the next assay, the target named is BMX (human) (UniProt P51813). Described as above. To be noted: compound 0.5 µM; ATP 10 µM.
Take `CCN(CC)C(=O)c1ccc(Nc2nc(OCC3CCCCC3)c3nc[nH]c3n2)cc1`: the residual activity is 42.9%.

For the molecule `O=C(Nc1cccc(Nc2nccc(Nc3cccc(C(F)(F)F)c3)n2)c1)C1CC1`, the residual activity is 83.6%.

For the molecule `CCC(=O)Nc1ccc2ncnc(Nc3cccc(Br)c3)c2c1`, the residual activity amounted to 98.7%.

A further assay has as its target BTK (human) (UniProt Q06187). The description is as above. To be noted: compound 0.5 µM; ATP 10 µM.
Take `CCN(CC)C(=O)c1ccc(Nc2nc(OCC3CCCCC3)c3nc[nH]c3n2)cc1`: the residual activity is 37.1%.

On to `O=C(Nc1cccc(Nc2nccc(Nc3cccc(C(F)(F)F)c3)n2)c1)C1CC1`, for which the residual activity came out at 83.7%.

Turning to `CCC(=O)Nc1ccc2ncnc(Nc3cccc(Br)c3)c2c1`, the residual activity was determined as 89.4%.

The next assay has as its target PAK6 (human) (UniProt Q9NQU5). The assay is described as above. To be noted: compound 0.5 µM; ATP 10 µM.
For the molecule `CCN(CC)C(=O)c1ccc(Nc2nc(OCC3CCCCC3)c3nc[nH]c3n2)cc1`, the residual activity worked out at 95.5%.

Turning to `O=C(Nc1cccc(Nc2nccc(Nc3cccc(C(F)(F)F)c3)n2)c1)C1CC1`, the residual activity worked out at 100%.

Consider `CCC(=O)Nc1ccc2ncnc(Nc3cccc(Br)c3)c2c1`, for which the residual activity turned out to be 101%.

For another assay, the target named is AURKC (human) (UniProt Q9UQB9). The assay is described as above. The settings on record: compound 0.5 µM; ATP 10 µM.
With `CCN(CC)C(=O)c1ccc(Nc2nc(OCC3CCCCC3)c3nc[nH]c3n2)cc1`, the residual activity worked out at 20.7%.

`O=C(Nc1cccc(Nc2nccc(Nc3cccc(C(F)(F)F)c3)n2)c1)C1CC1`: the residual activity was found to be 80.8%.

Take `CCC(=O)Nc1ccc2ncnc(Nc3cccc(Br)c3)c2c1`: the residual activity was 102%.

Another assay addresses DYRK1A (human) (UniProt Q13627). The assay is described as above. The settings on record: compound 0.5 µM; ATP 10 µM.
With `CCN(CC)C(=O)c1ccc(Nc2nc(OCC3CCCCC3)c3nc[nH]c3n2)cc1`, the residual activity amounted to 91.9%.

As for `O=C(Nc1cccc(Nc2nccc(Nc3cccc(C(F)(F)F)c3)n2)c1)C1CC1`, the residual activity is 107%.

As to `CCC(=O)Nc1ccc2ncnc(Nc3cccc(Br)c3)c2c1`, the residual activity came to 89.2%.

The next assay addresses CDK7 CCNH MNAT1 (human) (UniProt P50613+P51948+P51946). Described as above. To be noted: compound 0.5 µM; ATP 10 µM.
On to `CCN(CC)C(=O)c1ccc(Nc2nc(OCC3CCCCC3)c3nc[nH]c3n2)cc1`, for which the residual activity was found to be 87.6%.

In the case of `O=C(Nc1cccc(Nc2nccc(Nc3cccc(C(F)(F)F)c3)n2)c1)C1CC1`, the residual activity stood at 92.6%.

In the case of `CCC(=O)Nc1ccc2ncnc(Nc3cccc(Br)c3)c2c1`, the residual activity stood at 102%.

The target of a further assay is SRPK1 (human) (UniProt Q96SB4). The assay is described as above. To be noted: compound 0.5 µM; ATP 10 µM.
Sequence of SRPK1 (human) (Q96SB4 whole entry, looked up): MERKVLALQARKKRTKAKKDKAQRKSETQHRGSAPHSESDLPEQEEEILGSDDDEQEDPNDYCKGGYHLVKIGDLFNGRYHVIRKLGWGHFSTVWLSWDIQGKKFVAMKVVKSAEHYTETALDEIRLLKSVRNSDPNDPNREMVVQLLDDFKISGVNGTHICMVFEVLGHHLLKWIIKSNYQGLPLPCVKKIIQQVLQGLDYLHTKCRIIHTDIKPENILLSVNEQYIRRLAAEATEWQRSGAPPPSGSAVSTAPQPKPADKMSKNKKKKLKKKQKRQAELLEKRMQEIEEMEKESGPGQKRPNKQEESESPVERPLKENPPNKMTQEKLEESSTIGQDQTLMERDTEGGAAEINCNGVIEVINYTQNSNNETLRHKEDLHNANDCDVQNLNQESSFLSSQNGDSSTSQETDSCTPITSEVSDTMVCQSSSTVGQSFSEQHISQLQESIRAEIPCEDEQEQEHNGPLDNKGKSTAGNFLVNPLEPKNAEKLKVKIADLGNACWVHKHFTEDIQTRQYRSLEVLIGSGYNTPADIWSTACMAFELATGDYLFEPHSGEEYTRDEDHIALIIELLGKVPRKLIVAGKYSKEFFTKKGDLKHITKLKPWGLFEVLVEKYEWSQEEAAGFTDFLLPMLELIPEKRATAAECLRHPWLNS
For the molecule `CCN(CC)C(=O)c1ccc(Nc2nc(OCC3CCCCC3)c3nc[nH]c3n2)cc1`, the residual activity was found to be 91.7%.

With `O=C(Nc1cccc(Nc2nccc(Nc3cccc(C(F)(F)F)c3)n2)c1)C1CC1`, the residual activity was found to be 104%.

As for `CCC(=O)Nc1ccc2ncnc(Nc3cccc(Br)c3)c2c1`, the residual activity was 97%.

Another assay has as its target MAP3K9 (human) (UniProt P80192). Described as above. The settings on record: compound 0.5 µM; ATP 10 µM.
As to `CCN(CC)C(=O)c1ccc(Nc2nc(OCC3CCCCC3)c3nc[nH]c3n2)cc1`, the residual activity worked out at 3.8%.

For the molecule `O=C(Nc1cccc(Nc2nccc(Nc3cccc(C(F)(F)F)c3)n2)c1)C1CC1`, the residual activity was 95.2%.

Regarding `CCC(=O)Nc1ccc2ncnc(Nc3cccc(Br)c3)c2c1`, the residual activity is 92.7%.

Another assay concerns the target MAPK8 (human) (UniProt P45983). The assay is described as above. To be noted: compound 0.5 µM; ATP 10 µM.
As to `CCN(CC)C(=O)c1ccc(Nc2nc(OCC3CCCCC3)c3nc[nH]c3n2)cc1`, the residual activity worked out at 51.1%.

Turning to `O=C(Nc1cccc(Nc2nccc(Nc3cccc(C(F)(F)F)c3)n2)c1)C1CC1`, the residual activity worked out at 85.7%.

As to `CCC(=O)Nc1ccc2ncnc(Nc3cccc(Br)c3)c2c1`, the residual activity was found to be 73.7%.

A further assay has as its target TAOK3 (human) (UniProt Q9H2K8). The assay is described as above. To be noted: compound 0.5 µM; ATP 10 µM.
On to `CCN(CC)C(=O)c1ccc(Nc2nc(OCC3CCCCC3)c3nc[nH]c3n2)cc1`, for which the residual activity stood at 74.2%.

As to `O=C(Nc1cccc(Nc2nccc(Nc3cccc(C(F)(F)F)c3)n2)c1)C1CC1`, the residual activity was determined as 110%.

Take `CCC(=O)Nc1ccc2ncnc(Nc3cccc(Br)c3)c2c1`: the residual activity amounted to 89.2%.
